Measured values taken from patent US20060116316A1, “Heterocyclic inhibitors of IRES-mediated translation and methods of use thereof” (priority 2004, published 2006).
Where a SMILES comes first, the peptide text is derived from it.

These compounds were tested on HCV IRES (assay: HCV IRES reporter FACS assay (GFP expression ratio, intein-expressed cyclic peptides)). Details: 3-mers from mutant intein scaffold, junction Val-His-Asn-X1X2X3-Trp-Ile-Ser; ratio at least 1.20 = significant activity.
Assay type: cell-based, Hepatitis C virus
Text: [The source words this procedure for another variant and says it was used here with some conditions changed.] Cells producing libraries of cyclic 3-mers and 4-mers (i.e., libraries of cyclic peptides that contain 3 or 4 amino acid residues) were constructed using methods identical to those of Kinsella et al (J Biol. Chem. 2002 277:37512-8), except different oligonucleotides were used for library construction. Clones from this library were screened in an assay shown in FIG. 2 to identify IRES-inhibitory compounds.
In summary, separate cyclic 3-mer and cyclic 4-mer libraries were constructed such that each peptide of the library contained a fixed Ser, Thr or Cys residue (at position 1) and the remaining residues were randomized. For library construction, degenerate oligonucleotides of sequence 5′-[…](AGC/ACC/TGC)(NNK)2 or 3 TGCATCAGCGGCGACAG-3′ were annealed to the primer 5′-[…]-3′ and extended using the Expand PCR kit (Roche Molecular Biochemicals). The double-stranded DNA insert was digested and inserted into the BclI/DrdI sites of DnaBO-e-BFP (ACUC). The plasmid libraries were electroporated into ElectroMAX DH 10B competent E. coli (Invitrogen) for amplification on LB+amp agar medium. […] Expression of the intein is detected by detecting BFP expression. Expression of the intein (and the cyclic peptide produced by the intein) is suppressible by addition of exogenous doxycycline. The amino acid sequence of the junctions of the intein scaffold used in making the 3-mer library is Val-His-Asn-X3 or 4-Cys-Ile-Ser, where X3 or 4 are three or four contiguous amino acids.
Infectious retroviral particles were produced by transfection of 15 µg of each library (as described in Swift et al, (1999). Current Protocols in Immunology Vol. 10.17C, pp. 1-17, Freeman, N.Y.) into approximately 5×10^6 Phoenix-A packaging cells. Each resulting library of retroviral particles was then used to infect 5×10^6 BJAB-S3A11 reporter cells and a FACS based selection was carried out to isolate cells with reduced HCV-IRES reporter output.
In detail, referring to FIG. 2, the cells used in the assay contained an IRES-dependent reporter system. […]. Also present in the cells is a control reporter system for assaying the activity of 5′ cap-dependent translation (the mechanism by which most cellular proteins are normally translated). The control reporter system contains a CMV promoter that drives the transcription of an RNA containing 5′ cap-dependent UTR, operably linked to an RNA encoding RFP (red fluorescent protein). Translation of RFP is dependent on the activity of the 5′ cap-dependent UTR.
Cells containing both the cyclic compound library and the reporter systems described above were first screened for survival upon exposure to diptheria toxin, and then screened by FACS to identify cells that had reduced GFP expression, as compared to RFP expression. Cells were expanded and replica-plated and grown in the presence or absence of dox (100 ng/ml) for four days. Plates were stimulated with IL-4 and GFP expression (relative to RFP) was monitored by flow cytometry. The IRES-inhibitory activity of a peptide is evaluated by calculating the ratio of the geometric mean of GFP expression of peptide positive cells (“peptide pos+” cells i.e., cells not contacted with dox) to the geometric mean of GFP expression of peptide negative cells (“peptide pos−” cells i.e., cells contacted with dox).
Cyclic peptides assigned higher scores have a greater IRES-inhibitory activity.
The number shown in parentheses after each of the amino acid sequences is the IRES-inhibitory activity ratio, as discussed above.

Structure (SMILES) | IRES-inhibitory activity ratio (geometric mean GFP expression, peptide positive cells / peptide negative cells)
C[C@@H]1NC(=O)[C@H](CO)NC(=O)[C@H](Cc2ccccc2)NC1=O [cyclo-SAF, cyclo[SAF]] (cyclo(Ala-Phe-Ser)) | 1.88
CCC(C)[C@@H]1NC(=O)[C@H](C)NC(=O)[C@H](CO)NC1=O (stereo partly shown) [cyclo-SAI, cyclo[SAI]] | 1.30
C[C@@H]1NC(=O)[C@H](CO)NC(=O)[C@H](CCCCN)NC1=O [cyclo-SAK, cyclo[SAK]] (cyclo(Ala-Lys-Ser)) | 1.3
C[C@@H]1NC(=O)[C@H](CO)NC(=O)[C@H](CCC(N)=O)NC1=O [cyclo-SAQ, cyclo[SAQ]] (cyclo(Ala-Gln-Ser)) | 1.4
O=C1N[C@@H](CS)C(=O)N[C@@H](Cc2c[nH]c3ccccc23)C(=O)N[C@H]1CO [cyclo-SCW, cyclo[SCW]] (cyclo(Cys-Trp-Ser)) | 2.01
O=C(O)C[C@@H]1NC(=O)[C@H](CO)NC(=O)[C@H](Cc2c[nH]c3ccccc23)NC1=O [cyclo-SDW, cyclo[SDW]] (cyclo(Asp-Trp-Ser)) | 1.85
O=C(O)CC[C@@H]1NC(=O)[C@H](CO)NC(=O)[C@H](Cc2c[nH]c3ccccc23)NC1=O [cyclo-SEW, cyclo[SEW]] (cyclo(Glu-Trp-Ser)) | 2.00
O=C1CNC(=O)[C@H](CO)NC(=O)[C@H](Cc2c[nH]c3ccccc23)N1 [cyclo-SGW, cyclo[SGW]] (cyclo(Gly-Trp-Ser)) | 1.94
O=C1N[C@@H](Cc2cnc[nH]2)C(=O)N[C@@H](Cc2c[nH]c3ccccc23)C(=O)N[C@H]1CO [cyclo-SHW, cyclo[SHW]] (cyclo(His-Trp-Ser)) | 2.26
NC(=O)C[C@@H]1NC(=O)[C@H](CO)NC(=O)[C@H](Cc2c[nH]c3ccccc23)NC1=O [cyclo-SNW, cyclo[SNW]] (cyclo(Asn-Trp-Ser)) | 2.10

Same assay, conditions: 3-mers from mutant intein scaffold, junction Val-His-Tyr-X1X2X3-Cys-Ile-Ser; ratio at least 1.20 = significant activity

Structure (SMILES) | IRES-inhibitory activity ratio (geometric mean GFP expression, peptide positive cells / peptide negative cells)
CSCC[C@@H]1NC(=O)[C@H](C)NC(=O)[C@H](CO)NC1=O [cyclo-SAM, cyclo[SAM]] (cyclo(Ala-Met-Ser)) | 1.36
C[C@@H]1NC(=O)[C@H](CO)NC(=O)[C@H]([C@@H](C)O)NC1=O [cyclo-SAT, cyclo[SAT]] (cyclo(Ala-Thr-Ser)) | 1.21
CC(C)[C@@H]1NC(=O)[C@H](C)NC(=O)[C@H](CO)NC1=O [cyclo-SAV, cyclo[SAV]] (cyclo(Ala-Val-Ser)) | 2.65
C[C@@H]1NC(=O)[C@H](CO)NC(=O)[C@H](Cc2ccc(O)cc2)NC1=O [cyclo-SAY, cyclo[SAY]] (cyclo(Ala-Tyr-Ser)) | 1.95
CC(C)[C@@H]1NC(=O)[C@H](CC(=O)O)NC(=O)[C@H](CO)NC1=O [cyclo-SDV, cyclo[SDV]] (cyclo(Asp-Val-Ser)) | 1.23
CC(C)[C@@H]1NC(=O)[C@H](CCC(=O)O)NC(=O)[C@H](CO)NC1=O [cyclo-SEV, cyclo[SEV]] (cyclo(Glu-Val-Ser)) | 1.93
CC(C)[C@@H]1NC(=O)[C@H](Cc2cnc[nH]2)NC(=O)[C@H](CO)NC1=O [cyclo-SHV, cyclo[SHV]] (cyclo(His-Val-Ser)) | 1.91

Same assay, conditions: 4-mers from mutant intein scaffold, junction Val-His-Asn-X1X2X3X4-Cys-Ser; ratio at least 1.20 = significant activity

Structure (SMILES) | IRES-inhibitory activity ratio (geometric mean GFP expression, peptide positive cells / peptide negative cells)
N=C(N)NCCC[C@@H]1NC(=O)[C@H](Cc2c[nH]c3ccccc23)NC(=O)[C@H](Cc2ccccc2)NC(=O)[C@H](CO)NC1=O [cyclo-SFWR, cyclo[SFWR]] (cyclo(FWRS)) | 1.49

Same assay, conditions: BJAB-S3A11 reporter cells, +/- dox 100 ng/ml four days; library intein junction Val-His-Asn-X1X2X3-Cys-Ile-Ser; ratio at least 1.20 = significant activity

Structure (SMILES) | IRES-inhibitory activity ratio (geometric mean GFP expression, peptide positive cells / peptide negative cells)
C[C@@H]1NC(=O)[C@H](CS)NC(=O)[C@H](Cc2c[nH]c3ccccc23)NC1=O [cyclo-CAW, cyclo[CAW]] (cyclo(Ala-Trp-Cys)) | 1.37
CSCC[C@@H]1NC(=O)[C@H](CS)NC(=O)[C@H](Cc2c[nH]c3ccccc23)NC1=O [cyclo-CMW, cyclo[CMW]] (cyclo(Cys-Met-Trp)) | 1.29
O=C1N[C@@H](Cc2c[nH]c3ccccc23)C(=O)N[C@@H](Cc2c[nH]c3ccccc23)C(=O)N[C@H]1CS [cyclo-CWW, cyclo[CWW]] (cyclo(Cys-Trp-Trp)) | 1.41
O=C1N[C@@H](Cc2ccc(O)cc2)C(=O)N[C@@H](Cc2c[nH]c3ccccc23)C(=O)N[C@H]1CS [cyclo-CYW, cyclo[CYW]] (cyclo(Cys-Tyr-Trp)) | 1.3
C[C@@H]1NC(=O)[C@H](CO)NC(=O)[C@H](Cc2c[nH]c3ccccc23)NC1=O [cyclo-SAW, cyclo[SAW]] (cyclo(Ala-Trp-Ser)) | 1.21
CC(C)[C@@H]1NC(=O)[C@H](Cc2ccccc2)NC(=O)[C@H](CO)NC1=O [cyclo-SFV, cyclo[SFV]] | 1.33
O=C1N[C@@H](Cc2ccccc2)C(=O)N[C@@H](Cc2c[nH]c3ccccc23)C(=O)N[C@H]1CO [cyclo-SFW, cyclo[SFW]] (cyclo(Phe-Trp-Ser)) | 1.55
CCC(C)[C@@H]1NC(=O)[C@H](CO)NC(=O)[C@H](C(C)C)NC1=O (stereo partly shown) [cyclo-SIV, cyclo[SIV]] | 1.4
CCC(C)[C@@H]1NC(=O)[C@H](CO)NC(=O)[C@H](Cc2c[nH]c3ccccc23)NC1=O (stereo partly shown) [cyclo-SIW, cyclo[SIW]] | 1.36
CC(C)[C@@H]1NC(=O)[C@H](CCCCN)NC(=O)[C@H](CO)NC1=O [cyclo-SKV, cyclo[SKV]] (cyclo(Lys-Val-Ser)) | 1.38
CC(C)C[C@@H]1NC(=O)[C@H](CO)NC(=O)[C@H](Cc2c[nH]c3ccccc23)NC1=O [cyclo-SLW, cyclo[SLW]] (cyclo(Leu-Trp-Ser)) | 1.27
CSCC[C@@H]1NC(=O)[C@H](CO)NC(=O)[C@H](C(C)C)NC1=O [cyclo-SMV, cyclo[SMV]] (cyclo(Met-Val-Ser)) | 1.36
CSCC[C@@H]1NC(=O)[C@H](CO)NC(=O)[C@H](Cc2c[nH]c3ccccc23)NC1=O [cyclo-SMW, cyclo[SMW]] (cyclo(Met-Trp-Ser)) | 1.28
